For 14 compounds, IC50 results are on record in patent US10166216B2 (Rigel Pharmaceuticals, Inc., priority 2006, dated 2019).

Broadly, the IC50 is the concentration that inhibits the measured activity by half. High values mean a need for much substance, low ones inhibition by little substance.

Bounds are passed on as bounds.

Chain of Axl (P30530 26-894): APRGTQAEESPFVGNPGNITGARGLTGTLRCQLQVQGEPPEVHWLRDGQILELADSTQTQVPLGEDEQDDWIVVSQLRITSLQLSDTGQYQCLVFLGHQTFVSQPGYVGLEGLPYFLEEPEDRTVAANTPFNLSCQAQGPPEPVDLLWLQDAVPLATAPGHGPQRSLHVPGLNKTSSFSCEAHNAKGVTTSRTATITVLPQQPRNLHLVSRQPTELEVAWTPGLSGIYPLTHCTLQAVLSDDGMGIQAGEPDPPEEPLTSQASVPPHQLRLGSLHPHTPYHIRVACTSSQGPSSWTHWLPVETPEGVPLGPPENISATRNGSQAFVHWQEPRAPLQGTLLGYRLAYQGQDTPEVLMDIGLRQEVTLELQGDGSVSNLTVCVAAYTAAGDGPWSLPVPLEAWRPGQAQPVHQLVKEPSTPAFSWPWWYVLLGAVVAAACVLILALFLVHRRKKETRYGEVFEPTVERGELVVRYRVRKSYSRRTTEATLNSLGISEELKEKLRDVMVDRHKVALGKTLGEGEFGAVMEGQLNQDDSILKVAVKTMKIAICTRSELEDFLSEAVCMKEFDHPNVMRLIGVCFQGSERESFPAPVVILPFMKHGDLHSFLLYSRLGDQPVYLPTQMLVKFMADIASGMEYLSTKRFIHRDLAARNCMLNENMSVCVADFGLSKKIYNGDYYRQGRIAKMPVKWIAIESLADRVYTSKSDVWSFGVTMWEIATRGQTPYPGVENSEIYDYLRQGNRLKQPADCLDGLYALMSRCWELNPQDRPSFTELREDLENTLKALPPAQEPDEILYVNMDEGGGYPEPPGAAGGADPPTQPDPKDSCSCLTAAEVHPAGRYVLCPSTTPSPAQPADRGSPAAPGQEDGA

For the assay, the target named is Axl (Homo sapiens (Human), UniProt P30530). Briefly: Phospho-Akt in-cell Western assay (Axl-antibody cross-linking stimulation). It is filed as cell-based. Conditions: inhibition of Axl activity, Hela cells, phospho-Akt readout; Table 1, formula (Ia1). The protocol: The working solution: dilute the stock 1:20 with PBS immediately before use. • 10% SDS: working solution: 5% SDS (sodium dodecylsulfate), diluted in PBS Methods: Day 1:
A 96 well TC (tissue culture treated) plate was coated with 10 μg/mL poly-L-Lysine at 37° C. for 30 min, washed twice with PBS, and air-dried for 5 minutes before cells were added. Hela cells were seeded at 10,000 cells/well and the cells were starved in 100 μL starvation medium containing Axl/Fc for 24 hrs.
The cells were pre-treated with test compounds by adding 100 μL of 2× test compound to the starvation medium on the cells. The cells were incubated at 37° C. for 1 hr before stimulation.
The resulting mix was warmed to 37° C. 50 μL of 5× Axl 1st/2nd of antibody cluster was added to the cells and the cells were incubated at 37° C. for 5 min.
After 5 minutes stimulation, the plate was flicked to remove medium and the plate was tapped onto paper towels. Formaldehyde (4.0% in PBS, 100 μL) was added to fix the cells and the cells were incubated at ambient temperature for 20 min without shaking.
The cells were washed with a plate washer buffer to remove the formaldehyde solution. The plate was flicked to removed excess wash buffer and tapped onto paper towels. Quenching buffer (100 μL) was added to each well and the cells were incubated at ambient temperature for 20 minutes without shaking.
The cells were washed with a plate washer buffer to remove the quenching buffer. Blocking buffer (100 μL) was added and the cells were incubated at ambient temperature for at least an hour with gentle shaking.
The cells were washed with a plate washer buffer and diluted primary antibody (50 μL) was added to each well (blocking buffer was added to the negative control wells instead). The plates were incubated overnight at 4° C. with gentle shaking.
The wash buffer was removed, diluted secondary antibody (100 μL) was added, and the cells were incubated at ambient temperature for 1 hour with gentle shaking. During the incubation, the chemiluminescent reagent was brought to ambient temperature.
The secondary antibody was removed by washing the cells 1× with wash buffer, 1× with PBS by plate washer. The PBS was removed from the plate and the chemiluminescent reagent (80 μL: 40 μL A and 40 μL B) was added to each well at ambient temperature.
The resulting chemiluminescence was read with a Luminomitor within 10 minutes to minimize changes in signal intensity. […] The plate was tapped onto paper towels to remove excess liquid from wells and air-dried at ambient temperature for 5 minutes.
Crystal Violet working solution (60 μL) was added to each well and the cells were incubated at ambient temperature for 30 min. The crystal violet solution was removed, and the wells were rinsed with PBS, then washed 3× with PBS (200 μL) for 5 minutes each.
5% SDS solution (70 μL) was added to each well and the cells were incubated on a shaker for 30 min at ambient temperature.
This relative cell number was then used to normalize each luminescence reading. […]
As for `Nc1nc(Nc2ccc(OCCN3CCCC3)cc2)nn1-c1ccccc1F` [Compound 34, 1-(2-fluorophenyl)-N^3-(4-(2-(pyrrolidin-1-yl)ethoxy)phenyl)-1H-1,2,4-triazole-3,5-diamine], the IC50 was above 20000 nM. `CNc1cccc(-n2nc(Nc3ccc(OCCN4CCCCC4)cc3)nc2N)n1` [Compound 35, 1-(6-(methylamino)pyridin-2-yl)-N^3-(4-(2-(piperidin-1-yl)ethoxy)phenyl)-1H-1,2,4-triazole-3,5-diamine] displayed an IC50 of 1000 to 10000 nM.

Compound `CN(C)c1cccc(-n2nc(Nc3ccc(OCCN4CCCCC4)cc3)nc2N)n1` [Compound 36, 1-(6-(dimethylamino)pyridin-2-yl)-N^3-(4-(2-(piperidin-1-yl)ethoxy)phenyl)-1H-1,2,4-triazole-3,5-diamine] registered an IC50 of 10000 to 20000 nM.

In turn, `Nc1nc(Nc2ccc(OCCN3CCCC3)cc2)nn1-c1nc(Cl)nc2ccccc12` [Compound 37, 1-(2-chloroquinazolin-4-yl)-N^3-(4-(2-(pyrrolidin-1-yl)ethoxy)phenyl)-1H-1,2,4-triazole-3,5-diamine] gave a half-maximal inhibitory concentration (IC50) below 1000 nM. The figure for `Nc1nc(Nc2ccc(OCCN3CCCC3)cc2)nn1-c1nc(N2CCOCC2)nc2ccccc12` [Compound 38, 1-(2-morpholinoquinazolin-4-yl)-N^3-(4-(2-(pyrrolidin-1-yl)ethoxy)phenyl)-1H-1,2,4-triazole-3,5-diamine] is 1000 to 10000 nM; for `Nc1nc(Nc2ccc(OCCN3CCCC3)c(Cl)c2)nn1-c1nc2ccccc2s1` [Compound 39, 1-(benzo[d]thiazol-2-yl)-N^3-(3-chloro-4-(2-(pyrrolidin-1-yl)ethoxy)phenyl)-1H-1,2,4-triazole-3,5-diamine] it is below 1000 nM. The figure for `Cn1c(-n2nc(Nc3ccc(OCCN4CCCC4)c(Cl)c3)nc2N)nc2ccccc21` [Compound 40, N^3-(3-chloro-4-(2-(pyrrolidin-1-yl)ethoxy)phenyl)-1-(1-methyl-1H-benzo[d]imidazol-2-yl)-1H-1,2,4-triazole-3,5-diamine] is below 1000 nM; for `Nc1nc(Nc2ccc(OCCN3CCCC3)cc2)nn1-c1ccc2ccccc2n1` [Compound 41, N^3-(4-(2-(pyrrolidin-1-yl)ethoxy)phenyl)-1-(quinolin-2-yl)-1H-1,2,4-triazole-3,5-diamine] it is below 1000 nM; for `Cc1cc(O)nc(-n2nc(Nc3ccc(OCCN4CCCC4)cc3)nc2N)n1` [Compound 42, 2-(5-amino-3-(4-(2-(pyrrolidin-1-yl)ethoxy)phenylamino)-1H-1,2,4-triazol-1-yl)-6-methylpyrimidin-4-ol] it is above 20000 nM.

With `COc1cc2nc(Cl)nc(-n3nc(Nc4ccc(OCCN5CCCC5)cc4)nc3N)c2cc1OC` [Compound 44, 1-(2-chloro-6,7-dimethoxyquinazolin-4-yl)-N^3-(4-(2-(pyrrolidin-1-yl)ethoxy)phenyl)-1H-1,2,4-triazole-3,5-diamine], the IC50 was below 1000 nM. Regarding `COc1cc2ncnc(-n3nc(Nc4ccc(OCCN5CCCC5)cc4)nc3N)c2cc1OC` [Compound 45, 1-(6,7-dimethoxyquinazolin-4-yl)-N^3-(4-(2-(pyrrolidin-1-yl)ethoxy)phenyl)-1H-1,2,4-triazole-3,5-diamine], the IC50 was below 1000 nM. `CC1CCC(C)N1CCOc1ccc(Nc2nc(N)n(-c3cnc4ccccc4n3)n2)cc1` (centres unmarked) [Compound 46, N^3-(4-(2-(2,5-dimethylpyrrolidin-1-yl)ethoxy)phenyl)-1-(quinoxalin-2-yl)-1H-1,2,4-triazole-3,5-diamine] had an IC50 below 1000 nM.

On to `Nc1nc(Nc2ccc(OCCN3CCCC3)cc2)nn1-c1ncccn1` [Compound 47, 1-(pyrimidin-2-yl)-N^3-(4-(2-(pyrrolidin-1-yl)ethoxy)phenyl)-1H-1,2,4-triazole-3,5-diamine], for which the IC50 is above 20000 nM.

In turn, `Nc1nc(Nc2ccc(OCCN3CCCC3)cc2)nn1-c1nc(Cl)nc2c1CCC2` [Compound 49, 1-(2-chloro-6,7-dihydro-5H-cyclopenta[d]pyrimidin-4-yl)-N^3-(4-(2-(pyrrolidin-1-yl)ethoxy)phenyl)-1H-1,2,4-triazole-3,5-diamine] gave an IC50 below 1000 nM.
